Data: patent US10787462B2, “Heterocyclic compound” (TAKEDA PHARMACEUTICAL COMPANY LIMITED, priority 2015, dated 2020)

molecular target: T1, human RIPK1 (1-375) (Homo sapiens, UniProt Q13546); assay: Human RIPK1 enzyme inhibitory effect (ADP-Glo Kinase Assay); type: biochemical; settings: read-out: human RIPK1 enzyme inhibitory effect at 10 μM (% inhibition), 10 μM test compound; well without enzyme = 100% inhibition
T1 construct: human RIPK1 (1-375) gene; GST; made in house; host or cells: Sf-9 insect cells
T1 sequence (Q13546 1-375): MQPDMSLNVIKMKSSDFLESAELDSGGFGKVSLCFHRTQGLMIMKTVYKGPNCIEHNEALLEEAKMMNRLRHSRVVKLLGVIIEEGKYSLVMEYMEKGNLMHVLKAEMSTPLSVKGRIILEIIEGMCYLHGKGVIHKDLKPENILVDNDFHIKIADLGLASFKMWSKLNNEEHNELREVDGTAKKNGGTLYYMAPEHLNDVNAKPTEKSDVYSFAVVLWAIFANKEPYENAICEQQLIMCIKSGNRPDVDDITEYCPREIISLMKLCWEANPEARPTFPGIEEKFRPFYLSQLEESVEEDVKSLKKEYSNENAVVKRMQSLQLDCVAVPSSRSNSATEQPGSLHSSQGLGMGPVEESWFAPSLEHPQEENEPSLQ
Experimental: Experimental Example 1: Human RIPK1 Enzyme Inhibitory Effect
Enzyme was prepared by transducing human RIPK1 (1-375) gene to Sf-9 insect cells, and purifying using GST affinity column, and enzyme activity evaluation was performed using the enzyme. The enzyme was used after preservation at −70° C. The RIPK1 enzyme inhibitory activity of the test compound was measured using ADP-Glo™ Kinase Assay (Promega) according the following experiment methods. The test compound diluted with assay buffer (25 mM HEPES (pH 7.5), 10 mM MgCl2, 0.01% Tween-20, 2 mM DTT) was added to 384 well plate by each 2 μL. Next, RIPK1 enzyme solution diluted with the assay buffer was added thereto by each 2 μL, and the mixture was incubated at room temperature for 20 min. After the incubation, 0.6 mM ATP solution was added thereto by each 2 μL to initiate an enzyme reaction. The mixture was incubated at room temperature for 120 min, and ADP-Glo solution prepared according to Promega protocol was added to the 384 well plate by each 3 μL, and the reaction was performed at room temperature for 40 min. Then, Kinase-Detection solution was added to the 384 well plate by each 6 μL, and the reaction was performed at room temperature for 40 min. After the reaction, the luminescence intensity was measured by plate reader Envision (PerkinElmer).

Question: How did the inhibition at 10 µM turn out when CN1C(=O)[C@@H](N2CCc3cn(Cc4c(F)cccc4F)nc3C2=O)COc2ccccc21 [Example 24, (3S)-3-(2-(2,6-difluorobenzyl)-7-oxo-2,4,5,7-tetrahydro-6H-pyrazolo[3,4-]pyridin-6-yl)-5-methyl-2,3-dihydro-1,5-benzoxazepin-4(5H)-one] was run?
Answer: The inhibition at 10 µM was 101%.

Question: Which inhibition at 10 µM does the source give for CN1C(=O)[C@@H](N2CCc3cn(Cc4ccccc4Cl)nc3C2=O)COc2ccccc21 [Example 25, (3S)-3-(2-(2-ohlorobenzy)-7-oxo-2,4,5,7-tetrahydro-6H-pyrazolo[3,4-c]pyridin-6-yl)-5-methyl-2,3-dihydro-1,5-benzoxazepin-4(5H)-one] here?
Answer: Its inhibition at 10 µM is 100%.

Question: Which inhibition at 10 µM does the source give for CN1C(=O)[C@@H](N2CCc3cn(Cc4cccc(Cl)c4)nc3C2=O)COc2ccccc21 [Example 26, (3S)-3-(2-(3-chlorobenzyl)-7-oxo-2,4,5,7-tetrahydro-6H-pyrazolo[3,4-c]pyridin-6-yl)-5-methyl-2,3-dihydro-1,5-benzoxazepin-4(5H)-one] here?
Answer: The inhibition at 10 µM was 100%.

Question: Which inhibition at 10 µM does the source give for CN1C(=O)[C@@H](N2CCc3cn(CC4CC4)nc3C2=O)COc2ccccc21 [Example 27, (3S)-3-(2-(cyclopropylmethyl)-7-oxo-2,4,5,7-hydro-6H-pyrazolo[3,4-c]pyridin-6-yl)-5-methyl-2,3-dihydro-1,5-benzoxazepin-4(5H)-one] here?
Answer: The inhibition at 10 µM was 93%.

Question: For CN1C(=O)[C@@H](N2CCc3cn(Cc4ccccc4C#N)nc3C2=O)COc2ccccc21 [Example 28, 2-((6-((3S)-5-methyl-4-oxo-2,3,4,5-tetrahydro-1,5-benzoxazepin-3-yl)-7-oxo-4,5,6,7-tetrahydro-2H-pyrazolo[3,4-c]pyridin-2-yl)methyl)benzonitrile], which inhibition at 10 µM is on record?
Answer: Its inhibition at 10 µM is 99%.

Question: Which inhibition at 10 µM does the source give for CN1C(=O)[C@@H](N2CCc3cn(Cc4cccc(C#N)c4)nc3C2=O)COc2ccccc21 [Example 29, 3-((6-((3S)-5-methyl-4-oxo-2,3,4,5-tetrahydro-1,5-benzoxazepin-3-yl)-7-oxo-4,5,6,7-tetrahydro-2H-pyrazolo[3,4-c]pyridin-2-yl)methyl)benzonitrile] here?
Answer: Its inhibition at 10 µM is 99%.

Question: For CN1C(=O)[C@@H](N2CCc3cn(Cc4ccc(C#N)cc4)nc3C2=O)COc2ccccc21 [Example 30, 4-((6-((3S)-5-methyl-4-oxo-2,3,4,5-tetrahydro-1,5-benzoxazepin-3-yl)-7-oxo-4,5,6,7-tetrahydro-2H-pyrazolo[3,4-c]pyridin-2-yl)methyl)benzonitrile], which inhibition at 10 µM is on record?
Answer: Its inhibition at 10 µM is 97%.

Question: How did the inhibition at 10 µM turn out when CN1C(=O)[C@@H](N2CCc3cn(CC4CCC4)nc3C2=O)COc2ccccc21 [Example 31, (3S)-3-(2-(cyclobutylmethyl)-7-oxo-2,4,5,7-tetrahydro-6H-pyrazolo[3,4-c]pyridin-6-yl)-5-methyl-2,3-dihydro-1,5-benzoxazepin-4(5H)-one] was run?
Answer: The inhibition at 10 µM was 98%.

Question: With CN1C(=O)[C@@H](N2CCc3cn(Cc4ccccn4)nc3C2=O)COc2ccccc21 [Example 32, (3S)-5-methyl-3-(7-oxo-2-(pyridin-2-ylmethyl)-2,4,5,7-tetrahydro-6H-pyrazolo[3,4-c]pyridin-6-yl)-2,3-dihydro-1,5-benzoxazepin-4(5H)-one] as the compound, how does the inhibition at 10 µM read?
Answer: The inhibition at 10 µM was 97%.

Question: For CN1C(=O)[C@@H](N2CCc3cn(CC4CC(F)(F)C4)nc3C2=O)COc2ccccc21 [Example 33, (3S)-3-(2-((3,3-difluorocyclobutyl)methyl)-7-oxo-2,4,5,7-tetrahydro-6H-pyrazolo[3,4-c]pyridin-6-yl)-5-methyl-2,3-dihydro-1,5-benzoxazepin-4(5H)-one], which inhibition at 10 µM is on record?
Answer: The inhibition at 10 µM was 95%.

Question: CN1C(=O)[C@@H](N2CCc3cn(Cc4ccoc4)nc3C2=O)COc2ccccc21 [Example 34, (3S)-3-(2-(3-furylmethyl)-7-oxo-2,4,5,7-tetrahydro-6H-pyrazolo[3,4-c]pyridin-6-yl)-5-methyl-2,3-dihydro-1,5-benzoxazepin-4(5H)-L-one] was tested. Which inhibition at 10 µM did it give?
Answer: The inhibition at 10 µM was 99%.

Question: With CN1C(=O)[C@@H](N2CCc3cn(Cc4ncco4)nc3C2=O)COc2ccccc21 [Example 35, (3S)-5-methyl-3-(2-(1,3-oxazol-2-ylmethyl)-7-oxo-2,4,5,7-tetrahydro-6H-pyrazolo[3,4-c]pyridin-6-yl)-2,3-dihydro-1,5-benzoxazepin-4(5H)-one] as the compound, how does the inhibition at 10 µM read?
Answer: Its inhibition at 10 µM is 96%.
